Measured values reported in PubChem BioAssay AID2060899 (Molecular Pharmacology Branch, DTP, NCI, 2025).
Values belong to the compound of their own block, whether it stands above or below them.

Tested on: 565726-208-R1-J5-PDC complex spheroids, growth inhibition
Test: Anticancer human tumor 565726-208-R1-J5-PDC patient-derived pancreatic adenocarcinoma cell line growth inhibition [RAS]
Conditions: for IC50: curve of first compound; for viability, T/C: stronger effect = lower value
Text: RAS pathway inhibitors in Combinations in Complex Spheroids
A high-throughput screen of multi-cell type tumor spheroids was designed to identify active combinations of RAS pathway inhibitors and targeted small molecules. Complex spheroids include a stromal component modeled by human endothelial cells (HUVEC) and fibroblasts modeled by human mesenchymal stem cells (MSCs). The concentration ranges selected for each drug and investigational agent were based upon clinically achievable concentrations if the clinical Cmax of the agent was known.
Compounds. The drugs and investigational agents: abemaciclib (NSC768073), cobimetinib (NSC768068), divarasib (GDC6063, NSC841802), docetaxel (NSC628503), GDC-1971 (RLY-1971, NSC841576), gemcitabine (NSC613327), inavolisib (NSC800729), ipatasertib (NSC767898), KB-0742 (NSC834161), MRTX-1133 (NSC836407), osimertinib (NSC779217), RMC-4630 (NSC839698), RMC-6236 (NSC851965), RMC-6291 (NSC852671), Ro-3306 (NSC812927), sapanisertib (NSC764658), SN-38 (NSC673596), staurosporine (NSC755774), SY5609 (NSC837396), and tovorafenib (DAY101, NSC766906), were obtained from the National Cancer Institute (NCI) Developmental Therapeutics Program Chemical Repository. The FDA-approved anticancer drug set is available from the NCI Developmental Therapeutics Program. […] The stock solutions were prepared in dimethyl sulfoxide (DMSO, Sigma-Aldrich, St. Louis, MO, cat. D2650) at 800-fold the tested concentration and stored at -70 degrees C prior to their use. All drugs and investigational agents were tested over a range starting from a high concentration at or near the clinical Cmax and decreasing in half-log increments. If the clinical Cmax for an agent had not been determined, the highest concentration tested was 10 microM.
Cell Culture. All cells were maintained in an incubator at 37 degrees C and 5% CO2 with 95% humidity. The PDC lines were cultured according to standard operating procedures established by the NCI PDMR. All PDCs were thawed and cultured in Matrigel-coated flasks prepared with a working solution of 1X Ham's F-12 nutrient mix, without supplementation (Invitrogen, Waltham, MA, cat. 11765054), 100 U/mL penicillin-streptomycin (Invitrogen, cat. 15140122), and 2.5% Matrigel (Corning Inc., Corning, NY, cat. 354248) for the first three passages. The 362531-283-R-J2-PDC and 782815-120-R-J1-PDC lines were cultured in 6C/Colon 1B media, which includes advanced DMEM/F-12 (Thermo Fisher Scientific, cat. 12634028), 10 mM HEPES (Thermo Fisher Scientific, cat. 15630080), 1X GlutaMAX supplement (Thermo Fisher Scientific, cat. 35050061), 0.1 mg/mL primocin (InvivoGen, San Diego, CA, cat. ant-pm-2), 10% defined fetal bovine serum, heat inactivated (HyClone Laboratories Inc., Logan, UT, cat. SH30070.03HI), 50% L-WRN conditioned media (ATCC, cat. CRL-3276), 1.25 mM N-Acetyl-L-cysteine (Sigma-Aldrich, cat. A9165), 10 mM nicotinamide (Sigma-Aldrich, cat. N0636), 1X B-27 supplement (Thermo Fisher Scientific, cat. 17504044), 1X N-2 supplement (Thermo Fisher Scientific, cat. 17502048), 50 ng/mL human EGF (Thermo Fisher Scientific, cat. PHG0311), and 10 microM Y-27632 dihydrochloride (Tocris Bioscience, cat. 1254). The K12877-001-R-J1-PDC line was cultured in 6I media, which includes all 6C/Colon 1B media plus 10 ng/mL human FGF-10 (PeproTech, cat. 100-26), 1 ng/mL human FGF-2 (PeproTech, cat. 100-18B), 1 µM prostaglandin E2 (Tocris Bioscience, cat. 2296), […] hydrocortisone (Sigma-Aldrich, cat. H4001), and […] bovine insulin (Sigma-Aldrich, cat. I6634). The K86415-001-R-J1-PDC line was cultured in 6D media, which includes all 6C/Colon 1B media components minus the L-WRN conditioned media. The 485176-168-R4-J1-PDC was cultured in PANC media, which includes all 6C/Colon 1B media plus 100 ng/mL human FGF-10 (PeproTech, cat. 100-26), 500 nM SB-431542 (Selleckchem, cat. S1067), and 10 nM gastrin (Tocris Bioscience, cat. 3006). […]

[1] = second compound 0.0316 µM, first compound 0.0316 µM
[2] = second compound 0.0316 µM, first compound 0.1 µM
[3] = second compound 0.0316 µM, first compound 0.316 µM
[4] = second compound 0.0316 µM, first compound 1 µM
[5] = second compound 0.1 µM, first compound 0.0316 µM
[6] = second compound 0.1 µM, first compound 0.1 µM
[7] = second compound 0.1 µM, first compound 0.316 µM
[8] = second compound 0.1 µM, first compound 1 µM
[9] = second compound 0.316 µM, first compound 0.0316 µM
[10] = second compound 0.316 µM, first compound 0.1 µM
[11] = second compound 0.316 µM, first compound 0.316 µM
[12] = second compound 0.316 µM, first compound 1 µM
[13] = second compound 1 µM, first compound 0.0316 µM
[14] = second compound 1 µM, first compound 0.1 µM
[15] = second compound 1 µM, first compound 0.316 µM
[16] = second compound 1 µM, first compound 1 µM
[17] = second compound 3.16 µM, first compound 0.0316 µM
[18] = second compound 3.16 µM, first compound 0.1 µM
[19] = second compound 3.16 µM, first compound 0.316 µM
[20] = second compound 3.16 µM, first compound 1 µM
[21] = second compound 10 µM, first compound 0.0316 µM
[22] = second compound 10 µM, first compound 0.1 µM
[23] = second compound 10 µM, first compound 0.316 µM
[24] = second compound 10 µM, first compound 1 µM
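Further: spheroids exposed to compounds for seven days before readout.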
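Wherever viability, T/C is given: 100% = DMSO vehicle control viability.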

IC50 (second compound 0.0316 µM): < 31.6 nM | IC50 (second compound 0.1 µM): < 31.6 nM | IC50 (second compound 0.316 µM): < 31.6 nM | IC50 (second compound 1 µM): < 31.6 nM | IC50 (second compound 3.16 µM): < 31.6 nM | IC50 (second compound 10 µM): < 31.6 nM
SMILES: CC(=O)OC12COC1CC(O)C1(C)C(=O)C(O)C3=C(C)C(OC(=O)C(O)C(NC(=O)OC(C)(C)C)c4ccccc4)CC(O)(C(OC(=O)c4ccccc4)C21)C3(C)C (centres undefined) + C#Cc1c(F)ccc2cc(O)cc(-c3ncc4c(N5CC6CCC(C5)N6)nc(OCC56CCCN5CC(F)C6)nc4c3F)c12
viability, T/C [1]: 18.9% | viability, T/C [2]: 20.3% | viability, T/C [3]: 14.2% | viability, T/C [4]: 19.1% | viability, T/C (second compound 0.0316 µM, first compound 3.16 µM): 21.4% | viability, T/C (second compound 0.0316 µM, first compound 10 µM): 27% | viability, T/C [5]: 16.9% | viability, T/C [6]: 20.3% | viability, T/C [7]: 19.1% | viability, T/C [8]: 15.5% | viability, T/C (second compound 0.1 µM, first compound 3.16 µM): 18.8% | viability, T/C (second compound 0.1 µM, first compound 10 µM): 29.8% | viability, T/C [9]: 18.8% | viability, T/C [10]: 21.2% | viability, T/C [11]: 16.1% | viability, T/C [12]: 18.1% | viability, T/C (second compound 0.316 µM, first compound 3.16 µM): 22.8% | viability, T/C (second compound 0.316 µM, first compound 10 µM): 30.4% | viability, T/C [13]: 20% | viability, T/C [14]: 21.3% | viability, T/C [15]: 14.5% | viability, T/C [16]: 17.3% | viability, T/C (second compound 1 µM, first compound 3.16 µM): 24.9% | viability, T/C (second compound 1 µM, first compound 10 µM): 26.6% | viability, T/C [17]: 19.3% | viability, T/C [18]: 24.1% | viability, T/C [19]: 23.5% | viability, T/C [20]: 19.9% | viability, T/C (second compound 3.16 µM, first compound 3.16 µM): 25.9% | viability, T/C (second compound 3.16 µM, first compound 10 µM): 26.7% | viability, T/C [21]: 17.7% | viability, T/C [22]: 23.9% | viability, T/C [23]: 22.1% | viability, T/C [24]: 23.1% | viability, T/C (second compound 10 µM, first compound 3.16 µM): 21% | viability, T/C (second compound 10 µM, first compound 10 µM): 22.4%

IC50 (second compound 0.0316 µM): 92.8 nM | IC50 (second compound 0.1 µM): 73.8 nM | IC50 (second compound 0.316 µM): 273 nM | IC50 (second compound 1 µM): 63.3 nM | IC50 (second compound 3.16 µM): 37.5 nM | IC50 (second compound 10 µM): 30.3 nM
SMILES: Nc1ccn(C2OC(CO)C(O)C2(F)F)c(=O)n1 (centres undefined) + C#Cc1c(F)ccc2cc(O)cc(-c3ncc4c(N5CC6CCC(C5)N6)nc(OCC56CCCN5CC(F)C6)nc4c3F)c12
viability, T/C (second compound 0.0316 µM, first compound 0.00316 µM): 101% | viability, T/C (second compound 0.0316 µM, first compound 0.01 µM): 123% | viability, T/C [1]: 80.8% | viability, T/C [2]: 53.5% | viability, T/C [3]: 46.7% | viability, T/C [4]: 43.4% | viability, T/C (second compound 0.1 µM, first compound 0.00316 µM): 112% | viability, T/C (second compound 0.1 µM, first compound 0.01 µM): 130% | viability, T/C [5]: 64% | viability, T/C [6]: 54.6% | viability, T/C [7]: 42.8% | viability, T/C [8]: 37.5% | viability, T/C (second compound 0.316 µM, first compound 0.00316 µM): 122% | viability, T/C (second compound 0.316 µM, first compound 0.01 µM): 133% | viability, T/C [9]: 54.9% | viability, T/C [10]: 61.1% | viability, T/C [11]: 46.1% | viability, T/C [12]: 41.1% | viability, T/C (second compound 1 µM, first compound 0.00316 µM): 116% | viability, T/C (second compound 1 µM, first compound 0.01 µM): 110% | viability, T/C [13]: 58.2% | viability, T/C [14]: 46% | viability, T/C [15]: 47.8% | viability, T/C [16]: 39% | viability, T/C (second compound 3.16 µM, first compound 0.00316 µM): 117% | viability, T/C (second compound 3.16 µM, first compound 0.01 µM): 99.2% | viability, T/C [17]: 51.1% | viability, T/C [18]: 43.5% | viability, T/C [19]: 41% | viability, T/C [20]: 45.7% | viability, T/C (second compound 10 µM, first compound 0.00316 µM): 82% | viability, T/C (second compound 10 µM, first compound 0.01 µM): 85.8% | viability, T/C [21]: 48.6% | viability, T/C [22]: 47% | viability, T/C [23]: 48.8% | viability, T/C [24]: 44.9%
